Where no end group is shown, it is not given here.
Key:
[1] = system: arachidonic acid induced ear inflammation; experiment: arachidonic acid induced ear inflammation in mice (ear thickness/edema); assay type: in vivo, C57BL/6 female mice; conditions: ip 1 hour prior to arachidonic acid; ear thickness 1 hour post challenge; FIGS. 1 and 2
Protocol: A stock solution of 5 mgml of example 1 was prepared in D-PBS. The Analog 1 consists of 88.1% active peptide and the calculations were adjusted to compensate for the activity of the Analog 1. Serial dilutions were then made resulting in solutions of appropriate doses of Analog 1 in 0.2 ml. The animals were injected ip with 0.2 ml of the appropriate solution 1 hour prior to arachidonic acid application. The study consisted of various dosage groups as well as excipient groups. The animals used for the study were C57BL/6 female mice, which were obtained from Jackson Laboratories (age 8 weeks and weight 15-18 g). The mice were housed in conventional cages, fed pelleted food and given water ad libitum. The arachidonic acid (Sigma Lot #42H7817) was dissolved in methyl alcohol resulting in a final concentration of 2 mg/20 μl. […] One hour post challenge, the test and control ears were measured for thickness using a Mitutoyo No. 7300 gauge caliper. The thickness was recorded in units of 0.001 inches. […] The effect of Analog 1, which is on IL-8 low molecular weight peptide analog residue 6-19 on arachidonic acid induced ear inflammation was evaluated in vivo, according to the methods described in Example II. In this model, the application of arachidonic acid to the pinna of mice induces an immediate PMN-associated erythema and edema which may be measured by change in thickness. […]

[2] = system: neutrophils (PMNs); experiment: IL-8 induced Ca release in Fluo-3 loaded neutrophils, flow cytometry; assay type: cell-based, human; conditions: PMNs pre-incubated with analog at 10^-6 M; IL-8 10^-6 M; FIG. 6
Protocol: Polymorphonuclear leukocytes (≥95% neutrophils, PMNs) were isolated from heparinized (10 μ/ml) blood collected from healthy volunteers. Erythrocytes were removed by 6% dextran sedimentation for 30 minutes at room temperature, and then the supernatant was subjected to Ficoll (Ficoll-Papque, Pharmacia LKB, Uppsala, Sweden) density gradient centrifugation. PMNs were obtained from the pellet. Contaminated erythrocytes were eliminated by one cycle of hypotonic lysis. After an additional washing step the cells were counted and adjusted to a final concentration of 5×10^6 /ml in RPMI 1640 (Gibco, Grand Island, N.Y.).
The loading procedure with Fluo-3 (Molecular Probes, Eugene, Oreg.) was carried out with PMNs suspended at a density of 5×10^6 /ml in fresh RPMI 1640 containing 2.0 μM Fluo-3 AM (prediluted in dimethyl sulfoxide; Sigma Chemicals) in polypropylene tubes (Falcon 2063, Becton Dickinson). We incubated the PMNs for 25 minutes at 37 degrees C in a 5% CO2 incubator. […]
Before addition of the stimuli the fluorescence channel of the FACScan Plus (Becton Dickinson) was adjusted to find the basal fluorescence level of loaded but unstimulated PMNs. The samples were excited by an argon laser at 488 nm and emission was measured at 525 nm (green fluorescence, channel FL1). […] The fluorescence of Fluo-3-loaded cells was measured in arbitrary fluorescence units of mean channel fluorescence (channel FL1). […]

[3] = system: IL-8; experiment: activity of IL-8 analog compared to analog 1 (test not specified); parameters: species or system human; conditions: C-terminally truncated (residues 6 to 16)
Protocol: The biological activity of an analog of the invention is determined by blocking with the analog an activity with naturally occurring IL-8.

Sequence | EC-50 for blocking edema [1] [μg/animal] | block of Ca signal transduction induced by IL-8 [2] | activity compared to analog 1 [3]
RCQCIKTYSKPFHPK (cysteine pairing not given here) [Analog 1] | ~1 | blocked the Ca signal transduction | 
RCQCLQTLQGIHPK (cysteine pairing not given here) [Analog 2, Derived from Alpha Chemokine GRO (MGSA); b140 describes it as IL-8 residues 6 to 16] |  |  | slight loss of activity
